# Reference: patent publication US10744127B2, “MDR-reversing 8-hydroxy-quinoline derivatives” (MAGYAR TUDOMÁNYOS AKADÉMIA TERMÉSZETTUDOMÁNYI KUTATÓKÖZPONT, priority 2016, dated 2020)
# Like-named read-outs stand apart in the source and are kept apart here.
# Key:
# [1] = tested on: MES-SA and MES-SA/Dx5 cells; experiment: Selective toxicity in the presence of the P-gp inhibitor tariquidar; assay type: cell-based, human; settings: selectivity ratio in the presence of tariquidar (1 μM)
# Experimental: In the presence of tariquidar (an inhibitor of P-gp function), the toxicity of the compounds selectively diminishes in multidrug-resistant MES-SA/Dx5 cells, while the toxicity is unchanged against parental MESSA cells, which is reflected by a decrease in the selectivity ratio (SR (TQ)).
# To investigate the contribution of P-glycoprotein to the cytotoxic effect of a compound, cell survival was measured in the presence of the P-glycoprotein inhibitor tariquidar (1 μM). Tariquidar (CAS 206873-63-4) can be obtained e.g. from Selleck, Houston, USA.
# [2] = tested on: MES-SA and multidrug-resistant MES-SA/Dx5 cell line; experiment: Selective toxicity (ratio of IC50 in MES-SA to IC50 in MES-SA/Dx5) and activity index; assay type: cell-based, human
# From the text: Compounds having P-gp potentiated MDR-selective activity can be characterized by their inhibitory concentration (IC) with regard to a specific cancer cell line. Usually the IC value is given at a certain percentage ratio of non-inhibited molecules or surviving cells. For example an IC20 value of a compound on a cell line means that at this inhibitory concentration of the compound 80% of the cells are killed whereas 20% of the cells are still viable. A further characteristic of MDR-selective drugs is the selectivity ratio (SR), which is the ratio of the IC value measured in a non-multidrug resistant cell line to (i.e. divided by) the IC value measured in the corresponding transformed, multidrug-resistant cell line. The inverse value, the resistance ratio (RR) is calculated as the ratio of a compound's IC value against a multidrug resistant cell line divided by the parallel IC value of the same compound against a control non-multidrug resistant cell line. The Activity Index (AI) is calculated here as the ratio of the compound's selectivity ratio (SR) and the compound's IC50 value against the resistant cell. The AI reflects the level of simultaneous toxicity and selectivity towards multidrug-resistant cancer cells.
# (§1) The human uterine sarcoma cell line MES-SA and its doxorubicin resistant counterpart MES-SA/Dx5 were obtained from ATCC (MES-SA: No. CRL-1976™, MES-SA-Dx5: No. CRL-1977™). MES-SA/Dx5 cells express high levels of P-gp, and therefore are multidrug resistant (MDR). Cells were cultured in DMEM supplemented with 10% FBS, 5 mmol/L glutamine and 50 unit/mL penicillin and streptomycin (Life Technologies).
# (§2) Cell survival was measured by the PrestoBlue® Cell Viability Reagent (Life Technologies, USA). Cells were seeded in 100 μl medium at a density of 5000 cells/well in 96-well plates; the serially diluted drug was added the following day. Cells were then incubated for 72 hours at 37° C. in 5% CO2; the drug containing medium was removed, and the PrestoBlue® reagent was added according to the manufacturer's instructions. Fluorescence of the cells was measured by a Perkin Elmer EnSpire multimode plate reader or Perkin Elmer Victor X3 microplate reader. Data were background corrected and normalized to untreated cells. Curves were fitted with the help of Prism software using the sigmoidal dose-response model. Curve fit statistics were used to determine IC50 values. Differences between the IC50 values of the respective cell lines were analyzed by two-sided […] unpaired Student's t test and results were considered statistically significant at a P value of <0.05 (*) or 0.01 (**).
# Selectivity towards multidrug-resistant cells is expressed as the ratio of the IC50 value measured in the parental MES-SA and multidrug-resistant MES-SA/Dx5 cell line (Selectivity Ratio, SR).
# A novel characteristic of the compounds presented in this invention is that they exert their selective cytotoxicity at low IC50 values. Simultaneous toxicity and selectivity towards multidrug-resistant cancer cells is reflected by the Activity Index (AI) of the compounds, which is the ratio of the selectivity ratio (SR) and the IC50 value on the resistant cell line.
# [3] = tested on: MDCK II and MDCK II B1 cell lines; experiment: Selective toxicity towards MDCK II and MDCK II B1 cell lines; assay type: cell-based, canine; settings: MDCK II versus MDCK II B1
# Experimental: as §2
# Data on selective toxicity (expressed as Selectivity Ratio, SR) in two MDR models engineered by retroviral transfection of P-glycoprotein (A431/A431-B1 and MDCK II/MDCK II B1 cell lines) are presented in Table 3 and Table 4.
# A431 is a human epidermoid carcinoma cell line. Its derivative, the A431-B1 cell line expresses P-gp due to retroviral transfection of the mdr1 gene Türk, D. et al (Türk, D. et al., 2009). MDCK II is a canine kidney cell line. MDCK II B1 was created by inserting the mdr1 gene with transposons [Pape V F S et al. 2015] Both cell express P-gp stably, and show a stable MDR phenotype. Culture conditions were identical as in the case of MES-SA cells.
# MES-SA/Dx5 cell line = experiment: Cytotoxicity, PrestoBlue cell viability assay, MES-SA/Dx5; assay type: cell-based; settings: Homo sapiens
# Experimental: as §1, §2
# [4] = tested on: primary cells from doxorubicin resistant brca1-/-/p53-/- spontaneous mouse mammary carcinoma; experiment: Calcein assay of functional P-gp in primary tumor cells from doxorubicin resistant mammary carcinoma; assay type: cell-based; settings: single treatment, calcein assay (FIG. 4D)
# From the text: Tumor pieces derived from Brca1−/−;p53−/− FVB mouse mammary tumors were transplanted orthotopically into the mammary fat pad of wild type FVB mice.
# As described by Rottenberg et al. (Pajic et al. 2009), treatment with several cycles of the maximum tolerable dose of doxorubicin invariably lead to drug resistance mediated by the moderate upregulation of Mdr1a and/or Mdr1b (FIG. 4A). Primary cultures from resistant tumors were established. In just 10 passages the culture was depleted of stromal components (FIG. 4B).
# Functional expression of P-gp in the primary cells was evaluated by the calcein assay.
# MES-SA/Dx5 cells = experiment: Sensitivity of MES-SA/Dx5 cells to doxorubicin after a single treatment; assay type: cell-based, human; settings: after treatment with a single dose (FIG. 3)
# From the text: The above treatment with compounds of the general Formula I results in a new, stable phenotype, with the complete resensitization of cells to conventional chemotherapy consisting of P-glycoprotein substrates such as doxorubicin (FIG. 3).
# Curves show the sensitivity of MES-SA/Dx5 cells (P-gp overexpressing cell line established from MES-SA) to doxorubicin before and after treatment with a single dose of a state of the art compound (NSC693872) and two compounds relating to this invention (Example compounds No. 9 and No. 17). The sensitivity of MES-SA cells is shown as a reference (P-gp-negative parental cell line). […] (Values indicate the IC50 values (μM) derived from the cytotoxicity curves).
# [5] = tested on: P-gp-expressing MES-SA/Dx5 cells; experiment: P-gp switch assay (Calcein AM); assay type: cell-based, human; settings: MES-SA/Dx5, single dose at IC20 (killing 80% of the cells), surviving population at 80% confluence, Calcein AM
# Experimental: One million P-gp-expressing MES-SA/Dx5 cells were plated in a T25 cell culture flask. After 24 hours the compound of interest was added directly to the cells at a concentration corresponding to the IC20 value (killing 80% of the cells). After 5 days the culture media was removed, the cells were washed with PBS and the culture medium was exchanged. Cells were monitored daily and the recovery was recorded. The medium was changed every 5 days until the confluence of the cells reached 80%. At 80% confluence the cells were removed by gentle trypsinization, counted by an automated cell counter and stained with Calcein AM, a cellular dye able to detect the function of P-gp (Homolya 1993). P-gp-positivity was evaluated based on the ability of P-gp-expressing cells to extrude Calcein AM.
# MES-SA cell line = experiment: Cytotoxicity, PrestoBlue cell viability assay, parental MES-SA; assay type: cell-based; settings: Homo sapiens; parental MES-SA cell line (Table 2a)
# Experimental: as §1, §2
smiles,measurement,setting,value
"COc1ccc(CNCc2cc(Br)c3cccnc3c2O)c(OC)c1 [Example 9, 5-Bromo-7-(((2,4-dimethoxybenzyl)amino)methyl)quinolin-8-ol]",SR (TQ),[1],1.8
same,SR,[2]; MES-SA / MES-SA/Dx5 (Table 2b),20.4
same,SR,"[2]; MES-SA / MES-SA/Dx5, without tariquidar (Table 5)",20.4
same,Selectivity Ratio (SR) (MDCK II/MDCK II B1),[3],16.8
same,IC50,"MES-SA/Dx5 cell line; MES-SA/Dx5 (Table 2b), read-out: IC50 (μM) Dx5",0.12 µM
same,IC50,"MES-SA/Dx5 cell line; Mes-sa/Dx5 cell line, PrestoBlue assay, 72 hours (Table 1), read-out: IC50",0.118 µM
same,IC50,"MES-SA/Dx5 cell line; multidrug-resistant MES-SA/Dx5 cell line (Table 2a), read-out: IC50 (nM) in MES-SA/Dx5 cell line",0.118 µM
same,P-gp efflux capacity of primary tumor cells,[4],efflux capacity of the cells could be eradicated by a single treatment
same,Resensitization of MES-SA/Dx5 cells to doxorubicin,MES-SA/Dx5 cells,sufficient to resensitize MES-SA/Dx5 cells to doxorubicin
same,melting point,,146 to 148 °C
same,Fraction of P-gp-negative cells (P3) in the population,[5],99.0%
same,Fraction of P-gp-positive cells (P4) in the population,[5],1.0%
same,IC50,MES-SA cell line,2260 nM
